Source: ChEMBL document CHEMBL1201862, “PubChem BioAssay data set” (2004)
Active and inactive are the calls of the source. Rule as the data show it, for most assays here: actives have a measured EC50 and inactives only a lower limit.

Legend:
[1] = Luminescence Cell-Based Dose Response HTS to Identify Inhibitors of 5'UTR Stem-Loop Driven Prion Protein mRNA Translation in H4 Neuroglioblastoma Cells. [Related pubchem assays: 1827 (Project Summary), 1813 (Primary HTS)]; type: functional
[2] = inhibitors of firefly luciferase expression or activity, dose response, H4 neuroglioma cells, luminescence (AID 1990); type: functional, cell-based
[3] = inhibitors of SNCA 5'UTR-driven reporter translation, confirmation, H4 neuroglioma cells, luminescence (AID 1988); type: functional, cell-based
[4] = molecular target: T1, Corticotropin-releasing factor receptor 2/Corticotropin-releasing factor-binding protein (Homo sapiens, UniProt P24387+Q13324); test: Dose Response confirmation of uHTS hits for small molecule antagonists of the CRF-binding protein and CRF-R2 receptor complex.; type: functional; settings: read-out: IC50_Mean
T1 sequence (Q13324 whole entry): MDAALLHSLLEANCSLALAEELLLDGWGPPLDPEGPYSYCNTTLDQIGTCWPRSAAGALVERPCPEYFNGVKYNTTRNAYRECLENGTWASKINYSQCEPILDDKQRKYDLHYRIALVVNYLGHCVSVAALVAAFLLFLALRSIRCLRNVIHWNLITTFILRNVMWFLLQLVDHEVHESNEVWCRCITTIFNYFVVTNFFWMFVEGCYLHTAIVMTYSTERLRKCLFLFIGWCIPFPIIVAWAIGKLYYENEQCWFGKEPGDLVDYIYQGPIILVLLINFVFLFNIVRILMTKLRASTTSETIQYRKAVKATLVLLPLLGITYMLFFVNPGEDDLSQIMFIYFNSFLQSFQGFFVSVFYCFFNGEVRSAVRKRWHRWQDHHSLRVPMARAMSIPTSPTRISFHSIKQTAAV
T1 sequence (P24387 whole entry): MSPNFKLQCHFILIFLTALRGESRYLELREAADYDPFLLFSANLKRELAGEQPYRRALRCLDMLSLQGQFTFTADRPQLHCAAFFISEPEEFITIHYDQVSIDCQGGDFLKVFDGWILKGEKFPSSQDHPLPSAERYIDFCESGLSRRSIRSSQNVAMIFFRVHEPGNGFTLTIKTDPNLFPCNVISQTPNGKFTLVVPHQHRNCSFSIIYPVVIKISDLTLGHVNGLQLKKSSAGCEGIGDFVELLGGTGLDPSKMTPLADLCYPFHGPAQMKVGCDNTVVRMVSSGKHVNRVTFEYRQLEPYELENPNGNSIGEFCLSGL

[5] = molecular target: T1, Corticotropin-releasing factor receptor 2/Corticotropin-releasing factor-binding protein; test: activators of CRF receptor 2 with binding protein – uHTS hits, confirmation (AID 602473); type: functional; settings: read-out: EC50_Mean
H4 = test: Luminescence Cell-Based Dose Response HTS to Identify Activators of 5'UTR Stem-Loop Driven Prion Protein mRNA Translation in H4 Neuroglioblastoma Cells. [Related pubchem assays: 1829 (Project Summary), 1814 (Primary HTS)]; type: functional; settings: Homo sapiens
[6] = Luminescence Cell-Based Dose Response HTS to Identify Activators of Luciferase Translation or Activity in H4 […] Cells. [Related pubchem assays: 1829 (Project Summary), 1814 (Primary HTS)]; type: functional
[7] = NIH-3T3 fibroblast cytotoxicity, dose response, cytotoxicity control, cell-based, fluorescence, Alamar Blue, secondary assay (AID 2327); type: functional;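 also: NIH-3T3 mouse fibroblasts cultured with fluconazole at 8 µg/mL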
[8] = C. albicans growth with fluconazole, confirmation, fluorescence, retest (AID 2467); type: functional, cell-based
[9] = HEp-2 cell cytotoxicity, dose response, cytotoxicity control for RSV inhibitor project, HTS (AID 2410); type: functional; settings: human respiratory syncytial virus
Cytochrome P450 3A4 = Cytochrome P450 3A4 (Homo sapiens, UniProt P08684);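 also: CYP3A4 tested as one member of a cytochrome P450 panel screen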
Cytochrome P450 1A2 = molecular target: T2, Cytochrome P450 1A2 (Homo sapiens, UniProt P05177);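 also: PubChem cytochrome P450 panel assay, CYP1A2 panel member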
T2 sequence (P05177 whole entry): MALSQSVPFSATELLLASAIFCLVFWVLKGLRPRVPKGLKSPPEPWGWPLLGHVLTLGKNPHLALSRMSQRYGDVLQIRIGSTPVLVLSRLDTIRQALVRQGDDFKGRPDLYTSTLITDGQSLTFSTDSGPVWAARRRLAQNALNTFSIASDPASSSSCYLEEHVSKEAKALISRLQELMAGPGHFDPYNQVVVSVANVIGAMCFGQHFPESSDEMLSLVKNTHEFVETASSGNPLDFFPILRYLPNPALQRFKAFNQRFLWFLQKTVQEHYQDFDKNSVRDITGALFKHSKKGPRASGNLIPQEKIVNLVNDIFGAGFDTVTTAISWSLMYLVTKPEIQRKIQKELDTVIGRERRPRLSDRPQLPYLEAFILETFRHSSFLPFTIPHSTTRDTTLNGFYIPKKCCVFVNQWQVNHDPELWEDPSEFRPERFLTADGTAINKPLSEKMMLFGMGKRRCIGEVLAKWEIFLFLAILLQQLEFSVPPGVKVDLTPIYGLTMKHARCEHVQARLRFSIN

Cytochrome P450 2D6 = Cytochrome P450 2D6 (Homo sapiens, UniProt P10635);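 also: CYP2D6 member of a cytochrome P450 panel assay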
[10] = inhibitors of intracellular T. cruzi replication, confirmation, NIH3T3 host cells, beta-gal luminescence (AID 2044); type: functional, cell-based;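 also: intracellular parasites grown in NIH/3T3 mouse fibroblasts as host cells; luminescent beta-galactosidase reporter signal from transgenic T. cruzi replicating inside host cells; inhibitors lower the luminescence signal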
[11] = cytotoxicity toward NIH3T3 fibroblasts, dose response, counter-screen, cell-based, ATP luminescence, mouse fibroblasts (AID 2010); type: functional;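 also: cells exposed to compound for about 90 hours before reading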
Streptococcus = test: Group A Streptococcus viability loss, dose response, counter-screen for streptokinase expression inhibitor project, luminescence, BacTiterGlo (AID 1915); type: functional, organism-based;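 also: potency for reduction of bacterial viability or growth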
[12] = tested on: Streptococcus sp. 'group A'; test: growth inhibition of control SK(-) GAS strain, dose response, counter-screen for streptokinase expression inhibitor project, luminescence, kanamycin, BacTiterGlo, confirmation (AID 1900); type: functional, organism-based
INS1 = test: beta cell apoptosis inhibitors, cytokine rescue, dose response, luminescence, retest (AID 449756); type: functional, cell-based; settings: Rattus norvegicus;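 also: cell death triggered by IL-1 beta plus TNF-alpha plus IFN-gamma mixture; protective hits raise ATP signal compared with cytokine alone wells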
[13] = molecular target: T3, Rac GTPase-activating protein 1 (Homo sapiens, UniProt Q9H0H5); test: MgcRacGAP GTPase-activating activity inhibitors, confirmation, biochemical, ADP Hunter fluorescence, primary and confirmatory (AID 624330); type: functional
T3 sequence (Q9H0H5 whole entry): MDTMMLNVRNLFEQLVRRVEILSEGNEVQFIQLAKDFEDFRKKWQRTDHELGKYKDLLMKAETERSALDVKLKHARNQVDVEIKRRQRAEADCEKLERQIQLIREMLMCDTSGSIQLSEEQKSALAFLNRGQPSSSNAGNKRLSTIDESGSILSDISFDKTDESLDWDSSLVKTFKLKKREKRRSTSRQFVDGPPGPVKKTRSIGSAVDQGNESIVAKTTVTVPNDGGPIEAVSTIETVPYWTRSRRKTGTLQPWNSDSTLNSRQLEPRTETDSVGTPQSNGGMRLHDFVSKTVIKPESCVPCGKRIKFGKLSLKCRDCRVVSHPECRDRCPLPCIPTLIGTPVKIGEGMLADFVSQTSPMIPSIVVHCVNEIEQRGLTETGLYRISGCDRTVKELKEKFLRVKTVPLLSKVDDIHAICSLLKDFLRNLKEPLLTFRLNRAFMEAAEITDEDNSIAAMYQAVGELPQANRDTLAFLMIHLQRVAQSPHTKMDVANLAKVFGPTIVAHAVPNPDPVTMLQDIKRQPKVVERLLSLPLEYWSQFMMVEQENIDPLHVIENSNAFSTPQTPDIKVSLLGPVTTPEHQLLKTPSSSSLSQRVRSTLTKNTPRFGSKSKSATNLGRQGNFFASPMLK

Chain of Cytochrome P450 3A4 (P08684 whole entry): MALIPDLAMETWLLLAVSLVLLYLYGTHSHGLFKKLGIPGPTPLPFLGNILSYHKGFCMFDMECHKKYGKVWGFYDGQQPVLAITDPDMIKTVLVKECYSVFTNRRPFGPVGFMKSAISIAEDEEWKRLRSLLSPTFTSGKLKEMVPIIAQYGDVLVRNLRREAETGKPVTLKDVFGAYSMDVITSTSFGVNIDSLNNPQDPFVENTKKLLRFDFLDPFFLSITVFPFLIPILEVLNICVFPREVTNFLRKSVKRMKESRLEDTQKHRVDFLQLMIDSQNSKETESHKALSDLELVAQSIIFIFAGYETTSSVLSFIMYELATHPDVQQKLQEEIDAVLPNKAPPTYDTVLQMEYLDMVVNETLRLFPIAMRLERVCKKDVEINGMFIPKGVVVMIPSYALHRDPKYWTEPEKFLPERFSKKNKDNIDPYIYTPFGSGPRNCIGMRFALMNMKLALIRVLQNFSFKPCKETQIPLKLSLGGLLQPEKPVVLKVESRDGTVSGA
Chain of Cytochrome P450 2D6 (P10635 whole entry): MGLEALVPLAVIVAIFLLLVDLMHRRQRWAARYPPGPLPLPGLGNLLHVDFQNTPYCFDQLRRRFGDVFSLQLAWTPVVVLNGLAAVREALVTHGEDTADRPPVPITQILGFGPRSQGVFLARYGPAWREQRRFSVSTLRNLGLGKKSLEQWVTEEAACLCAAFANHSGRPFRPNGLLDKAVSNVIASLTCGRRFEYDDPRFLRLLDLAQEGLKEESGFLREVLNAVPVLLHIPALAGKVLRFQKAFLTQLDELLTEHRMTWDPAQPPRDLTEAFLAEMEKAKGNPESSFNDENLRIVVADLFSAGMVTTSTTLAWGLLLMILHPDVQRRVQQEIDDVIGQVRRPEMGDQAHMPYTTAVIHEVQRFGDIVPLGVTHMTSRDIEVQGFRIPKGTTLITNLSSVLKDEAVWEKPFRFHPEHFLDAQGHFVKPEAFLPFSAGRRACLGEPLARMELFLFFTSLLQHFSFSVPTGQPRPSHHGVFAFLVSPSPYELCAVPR

Cc1cc(C(=O)Nc2ccc(CC(=O)O)cc2)c(C)o1
EC50 [1]: 23.1 µM (active) | EC50 [2]: 12.9 µM (active) | EC50 [3]: 18.1 µM (active)

COc1ccc(/C=C/C(=O)Nc2ccc(-n3nncc3-c3ccc(OC)c(OC)c3)cc2)cc1OC
EC50 [1]: > 120 µM (not active) | EC50 [2]: 23.4 µM (active) | EC50 [3]: 16.5 µM (active)

O=C(NCC1CCCO1)C1CCCN1C(=O)NC1CCCCC1 (stereo not given)
IC50 [4]: > 47.1 µM (inactive) | EC50 [5]: > 53 µM (inactive)

O=S(=O)(c1ccc(Cl)s1)N1CCCc2cccc(O)c21
EC50 (H4): 45.3 µM (active) | EC50 [6]: 6.05 µM (active) | EC50 [7]: 21.4 µM (active) | EC50 [8]: > 38 µM (not active)

CSc1ccc(CNC(=O)Cc2ccc(NC(=O)C3=C(C)OCCS3)cc2)cc1
EC50 [6]: 1.92 µM (active)

O=Nc1c(O)n(Cc2cccc(Cl)c2)c2ccccc12
EC50 [7]: > 150 µM (inactive) | CC50 [9]: 11.7 µM (active) | AC50 (Cytochrome P450 3A4): 39.8 µM (inconclusive) | EC50 [8]: 2.99 µM (active) | AC50 (Cytochrome P450 1A2): 25.1 µM (inconclusive) | AC50 (Cytochrome P450 2D6): 22.4 µM (inconclusive)

Cc1cc(C)nc(NS(=O)(=O)c2ccc(NC(=O)COc3ccccc3)cc2)n1
EC50 [7]: > 150 µM (inactive) | EC50 [8]: > 38 µM (not active)

CCCC(=O)c1c(NC(C)C)cc(C)oc1=O
EC50 [1]: > 120 µM (not active) | EC50 [2]: > 120 µM (not active) | EC50 [3]: > 120 µM (not active)

CC(=O)Cc1nsc(Nc2ccc(Cl)cc2)n1
EC50 [7]: > 160 µM (inactive) | EC50 [8]: > 38 µM (not active)

O=C(NCCS(=O)(=O)c1ccc(Br)cc1)c1ccccc1Cl
IC50 [4]: > 47.1 µM (inactive) | EC50 [5]: > 53 µM (inactive)

CNS(=O)(=O)c1cccc(C(=O)NCC(c2ccco2)N(C)C)c1 (stereo not given)
IC50 [4]: > 47.1 µM (inactive) | EC50 [5]: > 53 µM (inactive)

COc1ccc(CCC(=O)N2CC(C)OC(C)C2)cc1 (stereo not given)
EC50 [7]: > 150 µM (inactive) | EC50 [8]: > 38 µM (not active)

Cc1ccc(-n2nc(C)c(Sc3ccccc3[N+](=O)[O-])c2N)cc1
IC50 [4]: > 47.1 µM (inactive) | EC50 [5]: > 53 µM (inactive)

CCc1ccc2[nH]c(C(=O)Nc3ccc4c(c3)OCO4)cc2c1
IC50 [4]: > 47.1 µM (inactive) | EC50 [5]: > 53 µM (inactive)

O=[N+]([O-])c1ccc(N2CCOCC2)cc1NCc1ccccc1
IC50 [4]: > 47.1 µM (inactive) | EC50 [5]: > 53 µM (inactive)

CCc1cccc(NC(=S)N(CCCN2CCOCC2)C(C)c2cc3cccc(OC)c3o2)c1 (stereo not given)
IC50 [4]: > 47.1 µM (inactive) | EC50 [5]: > 53 µM (inactive)

COc1ccc2c(c1)c(/C=C/c1cc[n+](C)cc1)cn2C
EC50 [7]: > 160 µM (inactive) | EC50 [8]: 2.23 µM (active)

CCN(c1ccccc1)S(=O)(=O)c1ccc(C(=O)Nc2nnc(C3CC3)o2)cc1
EC50 [7]: > 160 µM (inactive) | EC50 [10]: 2.16 µM (active) | EC50 [11]: 3.71 µM (active) | EC50 [8]: 2.19 µM (active)

O=C(NCCc1c[nH]c2ccccc12)c1cnc2sccn2c1=O
EC50 (H4): 54.8 µM (inconclusive) | EC50 [6]: 53 µM (active)

COc1ccc(C(=O)NC(=S)NNC(=O)c2ccccc2O)cc1
EC50 (Streptococcus): 8.79 µM (active) | EC50 [12]: 2.7 µM (active) | EC50 [5]: > 53 µM (inactive)

COc1cc(C(=O)NC2CC(C)(C)Cc3c2cnn3-c2ccccc2)cc(OC)c1OC (stereo not given)
IC50 [4]: > 47.1 µM (inactive) | EC50 [5]: > 53 µM (inactive)

O=C(COc1ccc(Cl)cc1Cl)NNC(=S)NC(=O)c1ccco1
EC50 (Streptococcus): 1.57 µM (active) | EC50 [12]: 0.309 µM (active)

O=C(Nc1nn[nH]n1)c1cccc([N+](=O)[O-])c1
EC50 [1]: > 120 µM (not active) | EC50 [2]: > 120 µM (not active) | EC50 [3]: > 120 µM (not active)

Nc1c2c(nc3sc4c(c13)CCCCC4)CCCCC2
EC50 [7]: > 160 µM (inconclusive) | EC50 [8]: 3.83 µM (active)

CCCCn1c2c(c(=O)n(C)c1=O)C(c1ccc(OC)cc1)N1CCCCCC1=N2 (stereo not given)
EC50 [1]: > 120 µM (not active) | EC50 [2]: 39.2 µM (active) | EC50 [3]: > 120 µM (not active)

Cc1cc(=O)n2c(c1C#N)SC1CCCCC12O (stereo not given)
EC50 [1]: > 120 µM (not active) | EC50 [2]: > 120 µM (not active) | EC50 [3]: > 120 µM (not active)

COc1ccccc1N1CC(C)(C)C(=O)N(C(=O)c2ccc(Cl)cc2)C1=S
AC50 (INS1): > 260 µM (inactive)

CCOc1ccccc1-n1c(C)nc2cc(C(=O)O)ccc21
IC50 [4]: > 47.1 µM (inactive) | EC50 [5]: > 53 µM (inactive)

O=C1C(C2=NC(c3ccccn3)C3C(=O)N(c4ccc(OC(F)(F)F)cc4)C(=O)C23)=C(O)c2ccccc21 (stereo not given)
AC50 (INS1): 5.71 µM (active)

COc1ccc(C(=O)N(c2ccccc2)C2C=CS(=O)(=O)C2)cc1 (stereo not given)
IC50 [4]: > 47.1 µM (inactive) | EC50 [5]: > 53 µM (inactive)

O=C1NCCCCC1NS(=O)(=O)c1cccc2ccccc12 (stereo not given)
IC50 [4]: > 47.1 µM (inactive) | EC50 [5]: > 53 µM (inactive)

CCOc1ccc(-c2cc(C(=O)N/N=C(\C)c3cccnc3)c3ccccc3n2)cc1
EC50 (H4): 84.3 µM (inconclusive)

O=C(Cc1ccc(O)cc1)N/N=C/c1cccnc1
EC50 [7]: > 160 µM (inactive) | EC50 [8]: > 38 µM (not active)

Cc1ccc(/C=N/Nc2ccnc3cc(Cl)ccc23)c(C)c1
EC50 [10]: 0.672 µM (active) | EC50 [11]: > 60 µM (not active) | AC50 (INS1): 6.15 µM (active)

Sc1nnc(-c2cccs2)n1/N=C/c1cccs1
IC50 [13]: 126 µM (active) | EC50 [7]: > 150 µM (inactive) | EC50 [8]: 1.93 µM (active)

O=C1C(/C=N/c2ccc(F)cc2)=C(O)c2ccccc21
EC50 (H4): 0.38 µM (active) | EC50 [6]: 0.173 µM (active)
